Measured values: publication PMC7367873, “Dissecting the sequence determinants for dephosphorylation by the catalytic subunits of phosphatases PP1 and PP2A” (Nature Communications, 2020)

The substances below were run on PP1c/PP2Ac (assay: PP1c versus PP2Ac specificity of p-sites (pairwise comparison / hierarchical clustering of phosphoproteomic data)). Settings: HeLa Kyoto lysate, 1 µM PP1c or PP2Ac.
Format: biochemical, human
Procedure: For phosphoproteomics, HeLa Kyoto cells were incubated with 20 nM Calyculin A (CST, #9902) for 10–15 min. This time point was determined empirically to yield maximal phosphatase inhibition without cells showing pleiotropic effects. Subsequently, cells were placed on ice and washed twice with cold PBS and scraped in lysis buffer (100 mM NaCl, 10 mM Tris, 0.1% IGEPAL, 1 mM EDTA, 1 mM EGTA, 20 nM Calyculin A, 1x cOmplete Mini protease inhibitor cocktail (Sigma), 1 mM DTT, 1 mM MnCl2, pH 7.5). After 10 pushes through an injection needle (21 G, BD), lysate was cleared from the insoluble fraction by centrifugation (10 min, 10^4 rcf, 4 °C). Protein concentration was then determined by a Bradford Assay and equal amounts of 1 mg total protein were incubated with recombinant PP1c/PP2Ac or buffer at a final phosphatase concentration of 1 µM in a total volume of 200 µL for 1 h at 30 °C. Lysates were then immediately placed on ice. PhosStop […] (Roche) was added and proteins were denatured by adding urea to a final concentration of 8 M taking into account the volume increase. Samples were then snap-frozen in liquid nitrogen for storage and subsequent MS analysis.
Downstream analysis of the phosphoproteomic datasets was carried out using the software tool Perseus[66]. For analysis of phosphoproteomic experiments, row-wise, median-normalized data (see previous section) was linked to known regulatory sites by PhosphoSitePlus entries and categorical columns for treatments were assigned. Reverse peptides and potential contaminants were filtered. Next, categorical columns for biological functions and treatments were assigned. TMT reporter intensities were then transformed into log2. At this point, all data were then filtered for valid values in all three replicates of at least one condition. Next, the distribution of TMT reporter intensities was assessed visually by plotting count-based histogramms and in a multiscatter plot using the Pearson correlation as an estimate of reproducibility. Next, NA (=not available: missing) values were replaced by imputation from a normal distribution (width 0.3, down-shift 1.8, per column). The data quality was routinely assessed by two means: First, by plotting a histogram of peptide length vs. counts and visualization of imputed values to confirm a normal distribution of the data, and secondly by principal component analysis (default settings in Perseus) to judge the sample grouping.
For hierarchical clustering, the results of the one-way ANOVA were processed for two more steps in Perseus: first data were filtered for significant hits from the one-way ANOVA and then subjected to z-transformation. Hierarchical clustering images were produced using Euclidean distance, 300 clusters and 10 rounds of iteration.
Also all further data processing for protein enrichment and extraction of protein sequences in positions −5 to +5 relative to the p-sites of interest for subsequent motif analysis was performed using RStudio with R v3.3.2 using the packages tidyverse and BioStrings. In order to study the sequence specificity of PP1c and PP2Ac on the protein level, position specific probability matrices, representing the relative occurrence for each amino acid surrounding pSer/pThr were produced by extracting sequence information in positions −5 to +5 for all PP1c/PP2Ac-sensitive class I p-sites. Next, the count for each amino acid in each position was divided by the total of all counts for a certain position, resulting in relative abundance. […] Importantly, amino acids with less than 25 counts in PP1-sensitive/-insensitive or PP2A-sensitive/insensitive comparisons were excluded. For calculating a heat map directly comparing PP1c against PP2Ac, these fold changes were divided. […] Obtained p-values were adjusted for multiple testing using the method of Benjamini and Hochberg.
PP1c/PP2Ac-sensitive class I sites were divided into three classes as illustrated for PP1c in Supplementary Fig. 4c. […]
For “LHQCISRRAENARSASFSQGTRASFLMRSDT [GAB2 210]”, the “GAB2 pS210 dephosphorylation in phosphoproteomic assay” value was “dephosphorylated by PP1c but not PP2Ac”.

Same assay, conditions: p-site significantly decreased exclusively by PP1c or PP2Ac; 1 µM phosphatase, HeLa Kyoto lysate, 1 h, 30 °C
“KGDIKSKSRSRSQSRSNSPLPVPPSKARSVS [SRSF6 301]” was tested, and the “Sensitivity (phosphatase exclusively dephosphorylating the p-site)” value was “PP1c”.
For “USP8 718: 14-3-3 interaction site, window LKRSYSSPDIT”, the “Sensitivity (phosphatase exclusively dephosphorylating the p-site)” value was “PP1c”.
In the case of “SRSF7 192: S/R-rich splicing factor p-site, window SRYFQSPSRSR”, the “Sensitivity (phosphatase exclusively dephosphorylating the p-site)” value is reported as “PP1c”.
For “YAP1 127: 14-3-3 interaction site, window VRAHSSPASLQ”, the “Sensitivity (phosphatase exclusively dephosphorylating the p-site)” value was “PP2Ac”.
For “NIFSRGANRMRGRLGSVDSFERSNSLASEKD [TBC1D4 588]”, the “Sensitivity (phosphatase exclusively dephosphorylating the p-site)” value was “PP1c”.
For “SRSF10 133: S/R-rich splicing factor p-site, window RSRSRSFDYNY”, the “Sensitivity (phosphatase exclusively dephosphorylating the p-site)” value was “PP1c”.
With “HSF1 307: 14-3-3 interaction site, window PSPPQSPRVEE” the “Sensitivity (phosphatase exclusively dephosphorylating the p-site)” value was “PP2Ac”.
For “EVPVPPPVPPRRRPESAPAESSPSKIMSKHL [SOS1 1161]”, the “Sensitivity (phosphatase exclusively dephosphorylating the p-site)” value was “PP1c”.
With “ISPTIVQQFGYQRRASDDGKLTDPSKTSNTI [RAF1 43]” the “Sensitivity (phosphatase exclusively dephosphorylating the p-site)” value was “PP1c”.
In the case of “SRSF5 231: S/R-rich splicing factor p-site, window KSRSVSRSPVP”, the “Sensitivity (phosphatase exclusively dephosphorylating the p-site)” value is reported as “PP1c”.
In the case of “SRSF1 199: S/R-rich splicing factor p-site, window VDGPRSPSYGR”, the “Sensitivity (phosphatase exclusively dephosphorylating the p-site)” value is reported as “PP1c”.
“HPPRKISTEDINKRLSLPADIRLPEGYLEKL [CDK16 119]” was tested, and the “Sensitivity (phosphatase exclusively dephosphorylating the p-site)” value was “PP1c”.
With “SRSF2 191: S/R-rich splicing factor p-site, window RSRSRSPPPVS” the “Sensitivity (phosphatase exclusively dephosphorylating the p-site)” value was “PP1c”.
For “LHQCISRRAENARSASFSQGTRASFLMRSDT [GAB2 210]”, the “Sensitivity (phosphatase exclusively dephosphorylating the p-site)” value was “PP1c”.
With “SRSF8 163: S/R-rich splicing factor p-site, window SPYSRSPYSRS” the “Sensitivity (phosphatase exclusively dephosphorylating the p-site)” value was “PP1c”.
“SRSF5 233: S/R-rich splicing factor p-site, window RSVSRSPVPEK” was tested, and the “Sensitivity (phosphatase exclusively dephosphorylating the p-site)” value was “PP1c”.
With “SRSF4/5/6 113;117;119: S/R-rich splicing factor p-site, window VENLSSRCSWQ” the “Sensitivity (phosphatase exclusively dephosphorylating the p-site)” value was “PP2Ac”.
“SRSF2 189: S/R-rich splicing factor p-site, window RSRSRSRSPPP” was tested, and the “Sensitivity (phosphatase exclusively dephosphorylating the p-site)” value was “PP1c”.
In the case of “KRKSKSRSRSKRPPKSPEEEGQMSS______ [SRSF8 273]”, the “Sensitivity (phosphatase exclusively dephosphorylating the p-site)” value is reported as “PP1c”.
In the case of “SRSF8 158: S/R-rich splicing factor p-site, window SRYSRSPYSRS”, the “Sensitivity (phosphatase exclusively dephosphorylating the p-site)” value is reported as “PP1c”.
“SPPPVSKRESKSRSRSKSPPKSPEEEGAVSS [SRSF2 206]” was tested, and the “Sensitivity (phosphatase exclusively dephosphorylating the p-site)” value was “PP1c”.
For “SRSF11 207: S/R-rich splicing factor p-site, window AAGLVSPSLKS”, the “Sensitivity (phosphatase exclusively dephosphorylating the p-site)” value was “PP2Ac”.
With “HSF1 303: 14-3-3 interaction site, window KEEPPSPPQSP” the “Sensitivity (phosphatase exclusively dephosphorylating the p-site)” value was “PP2Ac”.

What follows are substances tested on GFP-14-3-3β and its binding proteins (assay: GFP-14-3-3β co-IP with LC-MS/MS label-free quantification, untreated versus PP1c-treated). Settings: GFP-14-3-3β co-IP LC-MS/MS; PP1 vs untreated; student's t-test; label-free quantification, 3 replicates each.
Set-up: species or system human
For IQGAP1, the “Difference (log2), PP1 vs untreated” value was -0.359 log2.
In the case of YWHAB, the “Difference (log2), PP1 vs untreated” value is reported as -0.475 log2.
For EPRS, the “Difference (log2), PP1 vs untreated” value was -0.1517 log2.
DDX21 was tested, and the “Difference (log2), PP1 vs untreated” value was -0.7087 log2.
In the case of TRIM29, the “Difference (log2), PP1 vs untreated” value is reported as -0.3516 log2.
In the case of KARS, the “Difference (log2), PP1 vs untreated” value is reported as -0.3502 log2.

Same assay, conditions: PP1 vs untreated; LFQ intensities, replicates 1-3
For ARHGEF5, the “Difference (log2), PP1 vs untreated” value was -1.778 log2.
With LGALS3 the “Difference (log2), PP1 vs untreated” value was -0.9155 log2.
In the case of HSPA1B;HSPA1A, the “Difference (log2), PP1 vs untreated” value is reported as -0.7937 log2.
YWHAG was tested, and the “Difference (log2), PP1 vs untreated” value was -1.2523 log2.
For YWHAZ, the “Difference (log2), PP1 vs untreated” value was -1.298 log2.
In the case of TNKS1BP1, the “Difference (log2), PP1 vs untreated” value is reported as -1.162 log2.
With PKM the “Difference (log2), PP1 vs untreated” value was -1.659 log2.
With BCLAF1 the “Difference (log2), PP1 vs untreated” value was -1.628 log2.

Same assay, conditions: PP1 vs untreated; LFQ intensities; 3 replicates each
In the case of TECR, the “Difference (log2), PP1 vs untreated” value is reported as 0.5371 log2.
With LGALS1 the “Difference (log2), PP1 vs untreated” value was 0.4051 log2.
With CD109 the “Difference (log2), PP1 vs untreated” value was 0.7153 log2.
With PPIB the “Difference (log2), PP1 vs untreated” value was 0.6708 log2.

Same assay, conditions: pairwise comparison PP1 vs untreated
TRIM25 was tested, and the “Difference (log2), PP1 vs untreated” value was 0.1738 log2.
With XRCC6 the “Difference (log2), PP1 vs untreated” value was -0.1289 log2.
STOM was tested, and the “Difference (log2), PP1 vs untreated” value was 0.02924 log2.
ILF2 was tested, and the “Difference (log2), PP1 vs untreated” value was -0.07574 log2.
For PRKDC, the “Difference (log2), PP1 vs untreated” value was 0.07826 log2.
In the case of ANXA2;ANXA2P2, the “Difference (log2), PP1 vs untreated” value is reported as 0.07284 log2.

Same assay, conditions: pairwise comparison PP1 vs untreated, student's t-test; 3 replicates each; LC-MS/MS label-free quantification
With ARHGAP21 the “Difference (log2), PP1 vs untreated” value was -2.341 log2.
With FRYL the “Difference (log2), PP1 vs untreated” value was -4.747 log2.
DENND4A was tested, and the “Difference (log2), PP1 vs untreated” value was -5.672 log2.

These substances were tested on GFP-14-3-3β (assay: GFP-14-3-3β co-IP with LC-MS/MS, untreated GFP-14-3-3β versus GFP control (14-3-3 interactome)). Settings: GFP-14-3-3β co-IP LC-MS/MS; untreated vs GFP; student's t-test; label-free quantification, 3 replicates each.
Format: binding, human
For IQGAP1, the “Difference (log2), untreated vs GFP” value was 0.3872 log2.
YWHAB was tested, and the “Difference (log2), untreated vs GFP” value was 6.723 log2.
EPRS was tested, and the “Difference (log2), untreated vs GFP” value was -0.2032 log2.
With DDX21 the “Difference (log2), untreated vs GFP” value was 2.481 log2.
For TRIM29, the “Difference (log2), untreated vs GFP” value was 0.4899 log2.
With KARS the “Difference (log2), untreated vs GFP” value was -0.1156 log2.

Same assay, conditions: pairwise comparison untreated GFP-14-3-3β vs GFP, student's t-test; 3 replicates each; LC-MS/MS label-free quantification
In the case of ARHGAP21, the “Difference (log2), untreated vs GFP” value is reported as 4.914 log2.
With FRYL the “Difference (log2), untreated vs GFP” value was 5.1751 log2.
In the case of DENND4A, the “Difference (log2), untreated vs GFP” value is reported as 5.3156 log2.

Same assay, conditions: pairwise comparison untreated vs GFP
With TRIM25 the “Difference (log2), untreated vs GFP” value was -0.2184 log2.
For XRCC6, the “Difference (log2), untreated vs GFP” value was -0.01757 log2.
In the case of STOM, the “Difference (log2), untreated vs GFP” value is reported as -0.5691 log2.
With ILF2 the “Difference (log2), untreated vs GFP” value was 3.657 log2.
With PRKDC the “Difference (log2), untreated vs GFP” value was -0.4154 log2.
With ANXA2;ANXA2P2 the “Difference (log2), untreated vs GFP” value was -0.03703 log2.

Same assay, conditions: untreated vs GFP; LFQ intensities, replicates 1-3
In the case of ARHGEF5, the “Difference (log2), untreated vs GFP” value is reported as 3.791 log2.
With LGALS3 the “Difference (log2), untreated vs GFP” value was 0.3389 log2.
In the case of HSPA1B;HSPA1A, the “Difference (log2), untreated vs GFP” value is reported as 0.2148 log2.
YWHAG was tested, and the “Difference (log2), untreated vs GFP” value was 8.569 log2.
In the case of YWHAZ, the “Difference (log2), untreated vs GFP” value is reported as 6.453 log2.
For TNKS1BP1, the “Difference (log2), untreated vs GFP” value was 1.91 log2.
PKM was tested, and the “Difference (log2), untreated vs GFP” value was 0.471 log2.
For BCLAF1, the “Difference (log2), untreated vs GFP” value was 1.7962 log2.

Same assay, conditions: untreated vs GFP; LFQ intensities; 3 replicates each
TECR was tested, and the “Difference (log2), untreated vs GFP” value was -0.1984 log2.
LGALS1 was tested, and the “Difference (log2), untreated vs GFP” value was -0.7235 log2.
In the case of CD109, the “Difference (log2), untreated vs GFP” value is reported as -1.476 log2.
For PPIB, the “Difference (log2), untreated vs GFP” value was 0.09722 log2.
